Assay results: US6403791B1, “Heterocyclic compounds and their therapeutic use” (Darwin Discovery, Ltd., priority 2000, dated 2002)

Assay: Oral pharmacokinetics (Cmax) in guinea pigs
Details: guinea pig, in vivo, dosed orally at 3 mg/kg to guinea pigs

Cmax: 4370 ng/mL
Structure (SMILES): CCc1nc2c(OC(F)F)ccc(C(=O)Nc3c(C)noc3C)c2o1 [Example 1, 4-Difluoromethoxy-2-ethylbenzooxazole-7-carboxylic acid (3,5-dimethylisoxazole-4-yl)-amide]
